Broadly, the Papp is a coefficient for how fast a substance crosses the barrier. Read a low Papp as poor permeation. Broadly, the IC50 is the point on the concentration scale where inhibition reaches its midpoint.

We go through 14 compounds from patent US12692259B2, “Morpholine-containing and piperazine-containing CXCR4 modulators and uses related thereto” (Emory University, priority 2021, dated 2026).

Each structure is given as a SMILES string.

One data set in a line: PAMPA assay. Type of data set: in vitro ADME. Conditions: pH 7.4. The procedure:
PAMPA assay was performed by BioAssay Systems Services or Bristol Myers Squibb. The method used by BioAssay Systems Services is described below.
Stock solutions in DMSO for all compounds (10 mM) were thawed. The assay was performed in duplicate by following the PAMPA-096 procedure for sample plating. 4% Lecithin in dodecane solution was prepared by resuspending the dried lecithin with 750 μL dodecane. PBS pH 7.4 was used as the diluent. Two sets of plates and equilibrium solutions were incubated for 4 hours at room temperature. Acceptor and equilibrium solutions were analyzed in a UV plate. OD280 nm was used for High Permeability Control (chloramphenicol). OD270 nm was used for Medium Permeability Control (diclofenac) and Low Permeability Control (theophylline). OD254 nm was used for the test compounds.
Data analysis was performed by using the peak absorbance for each respective test compound and Permeability Control to determine the Permeability Rate (Pe) via the following equation: […]
where ODA is the absorbance of Acceptor Solution, ODE is the absorbance of the Equilibrium Standard, and C is determined by the equation below: […]
where Donor Volume (VD) is 0.2 cm^3, Acceptor Volume (VA) is 0.3 cm^3, and Membrane Area (Area) is 0.24 cm^2.
On the technique in general: PAMPA measures passive passage across an artificial lipid membrane.

The nature of another data set: in vitro. Conditions: mouse, 10 min, 3 µM, pH 7.4. As for the experimental part:
Metabolic stability assay was performed at Emory University's Department of Chemistry or by Bristol Myers Squibb. The method used by Emory University's Department of Chemistry is described below.
Each method was developed in the presence of an internal standard (ISTD) d5-7-ethoxy coumarin. The column temperature was maintained at 40° C. for most of the samples otherwise noted. The detection was operated in the Agilent JetStream electrospray positive ionization using multiple reaction monitoring mode (MRM).
Other MS conditions were as follows: dwell time 100 ms; gas flow 10 L/min; nebulizer pressure 45 psi; delta EMV 200 V; fragmentor voltage and collision energy for individual compounds vary.
Test compounds were dissolved in 100% DMSO or 100% MeOH to make 10 mM stock solutions. Verapamil (Sigma Aldrich) aided as a positive control and was dissolved in 100% DMSO to make 10 mM stock solutions. The 10 mM stock solution of test and control compounds were further diluted in potassium phosphate buffer (100 mM, pH 7.4) to 500 μM to ensure the organic solvent content was <0.2%. Human liver microsomes (HLMs) were purchased from Xenotech at 20 mg/mL. NADPH (Sigma Aldrich) 10 mM stocks were prepared in deionized water.
The HLM assay was prepared in a 1.5 mL Eppendorf tube with a final volume of 1100 μL for duplicate runs. Each reaction contained phosphate buffer (928.4 μL), liver microsomes (55 μL), and test compound resulting in a final concentration of 3 μM (6.6 μL of 500 μM). The reaction was initiated with 110 μL of 10 mM NADPH. […] Before centrifugation each of the aliquoted tubes were vortexed to make sure compounds were in the solution. The aliquots were centrifuged at 12,000 g for 5 min and the supernatant removed and placed in an LC-MS vial. Each time point was assessed using LC-MS and the area, based on the extracted ion, was integrated with respect to the ISTD. […] A no-NADPH negative control with test or control compound was performed in a single run (150 μL) at the longest time point. Controls were processed and analyzed like the test compounds. Each time point was run in duplicates followed by in-between blank washes to avoid the carryover and to equilibrate the column.
The MLM assay was performed using the same procedures as those described above for the HLM assay.

In a further data set the target is CXCR4 (Homo sapiens, UniProt P61073). Kind of data set: cAMP assay in CXCR4-CHO-Glo cells (GloSensor, forskolin + SDF-1α). Also on record: expressed in transfected cells. Format: cell-based. From the text:
Materials, reagents, and instrument—Advanced DMEM (Gibco), trypsin EDTA (0.05%, phenol red), L-glutamine, HBSS buffer with and without Ca^2+/Mg^2+ (Gibco), antibiotic-antimycotic (Gibco), hygromycin B, and geneticin selective antibiotic (G418 sulfate) were purchased from Invitrogen. Forskolin (Tocris), SDF-1α (R&D Systems), HEPES (Sigma Aldrich), FBS (Atlanta Biologicals), D-luciferin (Gold Biotechnology), sterile 60 mm tissue culture dishes, and 96-well sterile tissue culture plates were purchased from Corning.
The assay targeted CXCR4 expressed in CHO-gloSensor cells. It monitored GPCR activation based on forskolin-stimulated cAMP production in cells. The assay used a genetically encoded biosensor with its cAMP binding domain fused to luciferase. Binding of cAMP to the cAMP binding domain changed the conformation of the biosensor, leading to the activation of luciferase. The intensity of the luciferase signal (light output) resulted from the oxidation of D-luciferin to oxyluciferin is proportional to the amount of cAMP produced in the cells.
The assay was performed in triplicate using live cells in 96-well tissue culture plates. Cells were pre-incubated in the dark at room temperature for one hour in the presence of D-luciferin. Bioluminescence was quantified before and after the agonist/antagonist addition. Stock solution of forskolin and SDF-1a, was prepared in Locke-Luc buffer. Stock solutions of the test compounds were prepared in DMSO (10 mM); they were diluted by Locke's buffer for use in the assay.
CHO-Glo cells, a cell line stably expressing the GloSensor cAMP biosensor (Promega), were transfected with cDNA encoding human CXCR4 in Pires-AcGFP1 (Clontech) and a stable cell line was isolated (CXCR4-CHO-Glo cells). The CXCR4-CHO-Glo cells were grown to confluency on 60 mm tissue culture dishes. After trypsinization, the cells were plated on 96-well plates and incubated overnight. The next day, culture media in each well was aspirated and replaced with 100 μL Locke's buffer containing 4 mM D-luciferin, followed by incubation in the dark for one hour. Before the addition of agonist/antagonist, each plate was read five times at 2 min intervals to obtain basal bioluminescence values from each well. The average of these five pre-readings was used to normalize each well's response to account for differences in GloSensor expression and cell density. After five pre-readings, cAMP formation was initiated with the addition of 50 μL solution of test compound (TC) in Locke Luc buffer containing forskoline and SDF-1α. […] Luminescence was measured immediately after the addition of the antagonist solution. The measurements were taken every two minutes for 30 minutes in kinetics mode after antagonist addition. IC50 values were calculated from the 4-parameter logistic equation using Prism GraphPad.
(Cyclic AMP is a second messenger, typically raised through Gs and lowered through Gi signalling.)

The nature of data set [1]: Metabolic stability assay, human liver microsomes (HLM). Type of data set: in vitro ADME. To be noted: 10 min. From the text: Controls were processed and analyzed like the test compounds.

Sequence of CXCR4 (P61073 whole entry): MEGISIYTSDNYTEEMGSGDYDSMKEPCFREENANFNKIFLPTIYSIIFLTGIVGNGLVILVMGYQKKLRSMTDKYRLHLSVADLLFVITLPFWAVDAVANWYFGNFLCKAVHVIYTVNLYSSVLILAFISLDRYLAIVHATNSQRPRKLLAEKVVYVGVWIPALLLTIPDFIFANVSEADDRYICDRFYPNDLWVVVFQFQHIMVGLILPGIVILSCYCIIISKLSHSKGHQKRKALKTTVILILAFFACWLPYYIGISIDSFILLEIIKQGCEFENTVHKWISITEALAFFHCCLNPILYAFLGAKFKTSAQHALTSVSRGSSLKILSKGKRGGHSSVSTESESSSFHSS

In “PAMPA assay”, `CN(C[C@H]1Cc2c(cccc2N2CC3CC2CO3)CN1)[C@H]1CCCc2cccnc21` (stereo in doubt) [EMU-325, (S)—N—(((R)-5-((1R,4R)-2-oxa-5-azabicyclo[2.2.1]heptan-5-yl)-1,2,3,4-tetrahydroisoquinolin-3-yl)methyl)-N-methyl-5,6,7,8-tetrahydroquinolin-8-amine] gave a Papp at 4 h of 12.3 ×10⁻⁶ cm/s. On the same count and under the same terms, under `c1cnc2c(c1)CCC[C@@H]2N(CCCN1CCNCC1)C[C@H]1Cc2c(cccc2N2CCOCC2)CN1` [EMU-184, (S)—N—(((R)-5-morpholino-1,2,3,4-tetrahydroisoquinolin-3-yl)methyl)-N-(3-(piperazin-1-yl)propyl)-5,6,7,8-tetrahydroquinolin-8-amine] stands 3 ×10⁻⁶ cm/s; under `Cc1cnc(CN(C)C[C@H]2Cc3c(cccc3N3CCOCC3)CN2)c(C)c1` [EMU-260, (R)-1-(3,5-dimethylpyridin-2-yl)-N-methyl-N-((5-morpholino-1,2,3,4-tetrahydroisoquinolin-3-yl)methyl)methanamine], 19.2 ×10⁻⁶ cm/s; under `CN(CCCCN(C[C@H]1Cc2c(cccc2N2CCOCC2)CN1)[C@H]1CCCc2cccnc21)C1CCC(F)(F)CC1` [EMU-273, N1-(4,4-difluorocyclohexyl)-N1-methyl-N4-(((R)-5-morpholino-1,2,3,4-tetrahydroisoquinolin-3-yl)methyl)-N4-((S)-5,6,7,8-tetrahydroquinolin-8-yl)butane-1,4-diamine], 22.6 ×10⁻⁶ cm/s. The same measure, in the same setting: the same measure for `CCN1CCN(CCCN(C[C@H]2Cc3c(cccc3N3CCOCC3)CN2)[C@H]2CCCc3cccnc32)CC1` [EMU-275, (S)—N-(3-(4-ethylpiperazin-1-yl)propyl)-N—(((R)-5-morpholino-1,2,3,4-tetrahydroisoquinolin-3-yl)methyl)-5,6,7,8-tetrahydroquinolin-8-amine]: 10 ×10⁻⁶ cm/s; for `CN(C[C@H]1Cc2c(cccc2N2C[C@H]3CC[C@@H](C2)O3)CN1)[C@H]1CCCc2cccnc21` [EMU-295, (S)—N—(((R)-5-((1R,5S)-8-oxa-3-azabicyclo[3.2.1]octan-3-yl)-1,2,3,4-tetrahydroisoquinolin-3-yl)methyl)-N-methyl-5,6,7,8-tetrahydroquinolin-8-amine]: 16.5 ×10⁻⁶ cm/s. In the case of `C[C@@H]1CN(c2cccc3c2C[C@H](CN(C)[C@H]2CCCc4cccnc42)NC3)CCO1` [EMU-317, (S)—N-methyl-N—(((R)-5-((R)-2-methylmorpholino)-1,2,3,4-tetrahydroisoquinolin-3-yl)methyl)-5,6,7,8-tetrahydroquinolin-8-amine], the Papp at 4 h in “PAMPA assay” worked out at 15.5 ×10⁻⁶ cm/s. The same measure, in the same setting: under `C[C@H]1CN(c2cccc3c2C[C@H](CN(C)[C@H]2CCCc4cccnc42)NC3)CCO1` [EMU-318, (S)—N-methyl-N—(((R)-5-((S)-2-methylmorpholino)-1,2,3,4-tetrahydroisoquinolin-3-yl)methyl)-5,6,7,8-tetrahydroquinolin-8-amine] stands 16.6 ×10⁻⁶ cm/s. Regarding `CN(C[C@H]1Cc2c(cccc2N2CCOCC2)CN1)[C@H]1CCOc2cccnc21` [EMU-319, (4S)—N-methyl-N-((5-morpholino-1,2,3,4-tetrahydroisoquinolin-3-yl)methyl)-3,4-dihydro-2H-pyrano[3,2-b]pyridin-4-amine], in “PAMPA assay”, the Papp at 4 h was determined as 16 ×10⁻⁶ cm/s. With `CN(C[C@H]1Cc2c(cccc2N2CCO[C@@H](CO)C2)CN1)[C@H]1CCCc2cccnc21` [EMU-322, ((R)-4-((R)-3-((methyl((S)-5,6,7,8-tetrahydroquinolin-8-yl)amino)methyl)-1,2,3,4-tetrahydroisoquinolin-5-yl)morpholin-2-yl)methanol], in the data set “PAMPA assay”, the Papp at 4 h turned out to be 13.1 ×10⁻⁶ cm/s. As for `CN(C[C@H]1Cc2c(cccc2N2CCN(C(N)=O)CC2)CN1)[C@H]1CCCc2cccnc21` [EMU-326, 4-((R)-3-((methyl((S)-5,6,7,8-tetrahydroquinolin-8-yl)amino)methyl)-1,2,3,4-tetrahydroisoquinolin-5-yl)piperazine-1-carboxamide], in the data set “in vitro”, the “Liver Microsomes % rem. @ 10 min. M” value was determined as 78.3%. The IC50 on CXCR4 was 492 nM. In the data set “PAMPA assay”, this compound registered a Papp at 4 h of 7.6 ×10⁻⁶ cm/s. Moreover, the “Liver Microsomes % rem. @ 10 min. H” value in data set [1] stood at 87.1%. Consider `CN(C)C(=O)N1CCN(c2cccc3c2C[C@H](CN(C)[C@H]2CCCc4cccnc42)NC3)CC1` [EMU-327, N,N-dimethyl-4-((R)-3-((methyl((S)-5,6,7,8-tetrahydroquinolin-8-yl)amino)methyl)-1,2,3,4-tetrahydroisoquinolin-5-yl)piperazine-1-carboxamide], for which, in the data set “in vitro”, the “Liver Microsomes % rem. @ 10 min. M” value is recorded as 38.10%. On CXCR4, the IC50 is 684 nM. This compound also registered a Papp at 4 h in the data set “PAMPA assay” of 12.2 ×10⁻⁶ cm/s. Further, in data set [1], the “Liver Microsomes % rem. @ 10 min. H” value came out at 11.00%. In “PAMPA assay”, `C[C@@H]1COCCN1c1cccc2c1C[C@H](CN(C)[C@H]1CCCc3cccnc31)NC2` [EMU-338, (S)—N-methyl-N—(((R)-5-((R)-3-methylmorpholino)-1,2,3,4-tetrahydroisoquinolin-3-yl)methyl)-5,6,7,8-tetrahydroquinolin-8-amine] yielded a Papp at 4 h of 15.7 ×10⁻⁶ cm/s. As for `C[C@H]1COCCN1c1cccc2c1C[C@H](CN(C)[C@H]1CCCc3cccnc31)NC2` [EMU-339, (S)—N-methyl-N—(((R)-5-((S)-3-methylmorpholino)-1,2,3,4-tetrahydroisoquinolin-3-yl)methyl)-5,6,7,8-tetrahydroquinolin-8-amine], the Papp at 4 h in “PAMPA assay” came out at 17.1 ×10⁻⁶ cm/s.
